Assays:
[1] = tested on: proctitis attributable to radiation therapy; settings: in vivo
Source text: B., a patient who was […], complained of burning sensations in the anus, along with frequent and painful urination, after having received radiation therapy for a period of forty-five days. During a rectosigmoidoscopy examination, intense edema and contact hemorrhaging within the rectal mucosae were observed above the tumor. The diagnosis was: proctitis and cystitis arising from radiation therapy. On account of a lack of specific therapeutic measures, the drug was prescribed for the patient according to a dose of 100 mg per day.

[2] = tested on: piglets affected by dysentery; assay: dysentery in piglets; type: in vivo
Experimental: Experiments were performed with piglets weighing from 30 to 40 kgs, which were affected by dysentery.
Nevertheless, symptoms reappeared six to seven hours later in one group of animals. This factor rendered repeated administration of the drug necessary.

[3] = aqueous solutions, sodium salt
skin diseases = settings: water-soluble applications and ointments
[4] = tested on: Sprague-Dawley Rats' Lipid Metabolism and Serum Lipoproteins; settings: reducing serum cholesterol; cited from earlier work
metabolic products = type: in vivo; settings: metabolite

In the case of `Nc1cccc2c(=O)[nH][nH]c(=O)c12`, the “effectiveness in proctitis attributable to radiation therapy” value [1] is reported as “effective for proctitis attributable to radiation therapy”, the “time to improvement of condition, diarrhea ceased” value ([2]; 50 mg/kg, first series) is reported as “sixty” and the “time to reappearance of symptoms” value ([2]; 50 mg/kg, first series, one group of animals) is reported as “six to seven”. For the same molecule, the “period remaining fully active” value [3] was “sixty to eighty” and the “effectiveness in external use” value (skin diseases) was “more effective”.
For `O=c1[nH][nH]c(=O)c2ccccc12` [2,3-dihydrophthalazine-1,4-dione], the activity [4] is given as “extremely high level of activity”.
For `Nc1ccc2c(=O)[nH][nH]c(=O)c2c1` [4-aminophthaloylhydrazide], the therapeutic effect ([2]; 10, 25, and 50 mg/kg, third series) was “relatively insignificant”.
In the case of `Nc1ccc(C(=O)O)c(C(=O)O)c1` [5-aminophthalic acid], the excretion unmodified (metabolic products) is reported as “Most of the aminophthalic acid is expelled from the body without undergoing modification”.

From patent US5543410A, “Pharmacological use of phthaloylhydrazide derivatives; combination and application thereof” (L.I.M.A.D. Limited, priority 1993, dated 1996)
